Assay results from article PMC9072249 (Acta Pharmaceutica Sinica. B, 2021).

Tested on: SD rat with neuropathic pain model induced by spared nerve injury (SNI)
Experiment: Neuropathic pain model induced by spared nerve injury
Format: in vivo
Settings: SNI SD rats, po BID, 60 mg/kg/day, 20 days

NCC1(CC(=O)O)CCCCC1 [gabapentin]
course of efficacy over the study: gradually reduced
